Numbers after ± are expanded uncertainties.
Assay: xn = mol fraction of the nth substance listed
Conditions: Liquid; for mass density: Bellows volumetry; for Critical density: bellows voluometer

N [ammonia] + O
Conditions | mass density [kg/m3]
436.56 K, 14191 kPa, x1 = 0.9098 | 263.5 ± 0.5
436.56 K, 14208 kPa, x1 = 0.9098 | 264.8 ± 0.5
436.56 K, 14217 kPa, x1 = 0.9098 | 265.4 ± 0.5
436.56 K, 14225 kPa, x1 = 0.9098 | 265.9 ± 0.5
478.58 K, 17311 kPa, x1 = 0.7757 | 284.3 ± 0.5
478.58 K, 17320 kPa, x1 = 0.7757 | 284.7 ± 0.5
478.58 K, 17329 kPa, x1 = 0.7757 | 285.1 ± 0.5
478.58 K, 17347 kPa, x1 = 0.7757 | 285.8 ± 0.4
503.06 K, 18697 kPa, x1 = 0.6808 | 294.8 ± 0.5
503.06 K, 18706 kPa, x1 = 0.6808 | 295.2 ± 0.5
503.06 K, 18715 kPa, x1 = 0.6808 | 295.6 ± 0.5
503.06 K, 18724 kPa, x1 = 0.6808 | 296 ± 0.5
503.06 K, 18733 kPa, x1 = 0.6808 | 296.3 ± 0.5
503.06 K, 18743 kPa, x1 = 0.6808 | 296.6 ± 0.5
503.06 K, 18751 kPa, x1 = 0.6808 | 297 ± 0.5

Conditions | Critical density [kg/m3]
x1 = 0.6808 | 294.6 ± 1
x1 = 0.7757 | 284 ± 1.2
x1 = 0.9098 | 262.9 ± 1.8
